These results are taken from patent US6984653B2, “Heterocyclic compounds, oxazole derivatives, process for preparation of the same and use thereof” (Takeda Pharmaceutical Company Limited, priority 2001, dated 2006).

In one assay the target is T1, HER2 (Homo sapiens, UniProt P04626).
T1 construct: Taking as 100% the amount of phosphorylation of the HER2 tyrosine in control group; endogenous in cells; host or cells: BT-474 human breast cancer cells
Put plainly: Suppression of receptor tyrosine-phosphorylation in human breast cancer cells BT-474. The class given is cell-based. As to conditions: BT-474 cells, 2 hours with test compound, anti-phosphotyrosine antibody blot; read-out: Inhibition of intracellular HER2 phosphorylation BT-474 (IC50: μM). Here is the method:
A suspension of human breast cancer cell BT-474 (500 μl (300,000 cells)) were sown into a 24-well plate, and cultured at 37° C. in the presence of 5% carbon dioxide. On the following day, 250 μl of a solution of the test compound, which was previously 4-fold diluted, was added. After 2 hours, the extraction was added to stop the reaction and the protein was extracted. This protein was subjected to protein electrophoresis to separate and transferred to a nylon filter. This filter was reacted with an anti-phosphotyrosine antibody; the reaction product was luminated. The amount of film photosensitization was determined using an image analyzer. Taking as 100% the amount of phosphorylation of the HER2 tyrosine in control group, the ratio of the amount of phosphorylation of the HER2 tyrosine in each group receiving a solution of the test compound at each concentration was determined, and the test compound concentration required to achieve 50% suppression by the test compound of the amount of phosphorylation of HER2 tyrosine (IC50 value) was calculated.

Assay [1] concerns human breast cancer cell BT-474. As to the kind of experiment: Inhibitory action on breast cancer cell BT-474 proliferation in vitro (SRB). It counts as cell-based. As to conditions: 120 h, BT-474 cells, cultured for 5 days, SRB staining, read-out: Cell growth inhibition BT-474 (IC50: μM). The protocol:
A suspension of human breast cancer cell BT-474 (100 μl (6,000 cells)) were sown to a 96-well microplate and cultured at 37° C. in the presence of 5% carbon dioxide. On the following day, 100 μl of a solution of each test compound, which was previously diluted 2-fold, was added, and the cells were cultured for 5 days. After the culture medium containing the test compound was removed, the cells were washed and fixed with 50% trichloroacetic acid, after which a 0.4% (w/v) SRB solution (dissolved in 1% acetic acid) was added to stain the cells (Skehan et al., Journal of the National Cancer Institute, Vol. 82, pp. 1107-1112, 1990). After the pigment solution was removed and the plate was washed with a 1% acetic acid solution, 100 μl of an extract (10 mM Tris solution) was added to dissolve the pigment; absorbance was measured at an absorption wavelength of 550 nm to quantify the amount of cells as protein content. Taking as 100% the absorbance for the control group, which received no test compound solution, the ratio of the absorbance for each treatment group was determined, and the compound concentration required to achieve 50% suppression of the residual cell content relative to the control (IC50 value) was calculated.
On the technique in general: Sulforhodamine B stains cellular protein and so reports cell mass.

T1 sequence (P04626 23-1255): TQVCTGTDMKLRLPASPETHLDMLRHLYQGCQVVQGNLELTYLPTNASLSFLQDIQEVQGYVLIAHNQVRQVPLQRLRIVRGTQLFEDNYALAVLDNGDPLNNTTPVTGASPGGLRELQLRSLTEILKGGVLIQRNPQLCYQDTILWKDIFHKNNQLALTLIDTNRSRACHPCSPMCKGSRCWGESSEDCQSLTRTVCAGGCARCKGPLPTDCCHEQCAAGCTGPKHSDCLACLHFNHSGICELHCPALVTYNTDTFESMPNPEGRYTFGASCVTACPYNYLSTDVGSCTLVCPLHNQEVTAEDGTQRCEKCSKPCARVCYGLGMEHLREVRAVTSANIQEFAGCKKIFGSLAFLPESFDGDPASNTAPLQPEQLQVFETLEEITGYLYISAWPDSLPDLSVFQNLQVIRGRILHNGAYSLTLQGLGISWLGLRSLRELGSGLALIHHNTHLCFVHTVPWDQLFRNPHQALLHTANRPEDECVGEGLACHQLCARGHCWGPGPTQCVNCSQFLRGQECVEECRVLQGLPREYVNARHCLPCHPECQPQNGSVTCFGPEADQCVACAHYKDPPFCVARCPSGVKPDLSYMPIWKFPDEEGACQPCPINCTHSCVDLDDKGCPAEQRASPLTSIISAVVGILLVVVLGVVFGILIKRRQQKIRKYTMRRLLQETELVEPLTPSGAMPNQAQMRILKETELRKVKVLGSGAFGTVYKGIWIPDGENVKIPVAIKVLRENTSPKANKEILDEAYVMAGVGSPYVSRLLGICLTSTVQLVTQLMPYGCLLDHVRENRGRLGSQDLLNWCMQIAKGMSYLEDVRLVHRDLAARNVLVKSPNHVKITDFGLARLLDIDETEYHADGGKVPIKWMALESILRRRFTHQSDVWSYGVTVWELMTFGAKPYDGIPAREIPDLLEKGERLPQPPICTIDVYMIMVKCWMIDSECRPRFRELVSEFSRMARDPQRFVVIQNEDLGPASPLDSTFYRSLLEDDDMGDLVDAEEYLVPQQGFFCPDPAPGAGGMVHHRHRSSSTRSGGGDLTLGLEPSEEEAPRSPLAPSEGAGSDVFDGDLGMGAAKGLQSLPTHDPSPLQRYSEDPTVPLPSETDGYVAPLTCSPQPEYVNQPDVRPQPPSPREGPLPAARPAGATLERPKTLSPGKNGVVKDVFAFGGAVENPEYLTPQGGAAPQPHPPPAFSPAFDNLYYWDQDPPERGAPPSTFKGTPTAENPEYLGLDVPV

The term IC50 denotes the concentration at which inhibition is half-maximal. In the case of `CS(=O)(=O)NCCc1nccn1CCCCc1ccc(OCc2coc(/C=C/c3ccc(C(F)(F)F)cc3)n2)cc1` [Example 16, N-[2-[1-[4-[4-[[2-[(E)-2-[4-(trifluoromethyl)phenyl]ethenyl]-1,3-oxazol-4-yl]methoxy]phenyl]butyl]-1H-imidazol-2-yl]ethyl]methanesulfonamide], the IC50 was under 4 µM at HER2 and 0.15 µM in assay [1]. `O=C(OCCc1nccn1CCCCc1ccc(OCc2coc(/C=C/c3ccc(C(F)(F)F)cc3)n2)cc1)N1CCCC1` [Example 3, 2-[1-[4-[4-[[2-[(E)-2-[4-(trifluoromethyl)phenyl]ethenyl]-1,3-oxazol-4-yl]methoxy]phenyl]butyl]-1H-imidazol-2-yl]ethyl 1-pyrroridinecarboxylate]: the results for the IC50 (on HER2; in assay [1]) were under 4 µM and under 0.05 µM, respectively.

Regarding `O=C(CCc1nccn1CCCCc1ccc(OCc2coc(/C=C/c3ccc(C(F)(F)F)cc3)n2)cc1)N1CCCC1` [Example 6, 1-{3-[1-(4-{4-[(2-{(E)-2-[4-(trifluoromethyl)phenyl]ethenyl}-1,3-oxazol-4-yl)methoxy]phenyl}butyl)-1H-imidazol-2-yl]propanoyl}pyrrolidine], the IC50 at HER2 is under 4 µM; in assay [1], under 0.05 µM.

For `CS(=O)(=O)CCc1nccn1CCCCc1ccc(OCc2coc(/C=C/c3ccc(C(F)(F)F)cc3)n2)cc1` [Example 17, 4-[[4-[4-[2-[2-(methylsulfonyl)ethyl]-1H-imidazol-1-yl]butyl]phenoxy]methyl]-2-[(E)-2-[4-(trifluoromethyl)phenyl]ethenyl]-1,3-oxazole], the IC50 on HER2 was under 4 µM. In the case of `CN(C)C(=O)CCc1nccn1CCCCc1ccc(OCc2coc(/C=C/c3ccc(C(F)(F)F)cc3)n2)cc1` [Example 5, N,N-dimethyl-3-[1-[4-[4-[[2-[(E)-2-[4-(trifluoromethyl)phenyl]ethenyl]-1,3-oxazol-4-yl]methoxy]phenyl]butyl]-1H-imidazol-2-yl]propanamide], the IC50 is under 4 µM on HER2 and under 0.05 µM in assay [1].

With `CS(=O)(=O)CCc1nccn1CCCCc1ccc(OCc2coc(/C=C/c3ccc(F)cc3)n2)cc1` [Example 11, 2-[(E)-2-(4-fluorophenyl)ethenyl]-4-[[4-[4-[2-[2-(methylsulfonyl)ethyl]-1H-imidazol-1-yl]butyl]phenoxy]methyl]-1,3-oxazole], the IC50 on HER2 is under 4 µM.

Consider `CC(C)NC(=O)OCCc1nccn1CCCCc1ccc(OCc2coc(/C=C/c3ccc(C(F)(F)F)cc3)n2)cc1` [Example 1, 2-[1-[4-[4-[[2-[(E)-2-[4-(trifluoromethyl)phenyl]ethenyl]-1,3-oxazol-4-yl]methoxy]phenyl]butyl]-1H-imidazol-2-yl]ethyl isopropylcarbamate], for which the results for the IC50 (at HER2; in assay [1]) were under 4 µM and under 0.05 µM, respectively.
